Source: patent US8524702B2, “Substituted benzoazepines as toll-like receptor modulators” (VentiRx Pharmaceuticals, Inc., priority 2009, dated 2013)

Experiments:
TLR8 = target: T1, TLR8 (Homo sapiens, UniProt Q9NR97); experiment: PBMC assay for TLR8 (TNFα in supernatants by ELISA); type: cell-based; parameters: Peripheral blood mononuclear cells (PBMCs) from human blood were isolated; endogenous in cells; host or cells: human PBMCs; conditions: human PBMCs incubated with compound overnight, MC50 = concentration at which 50% of the maximum induction is seen
T1 sequence (Q9NR97 27-1041): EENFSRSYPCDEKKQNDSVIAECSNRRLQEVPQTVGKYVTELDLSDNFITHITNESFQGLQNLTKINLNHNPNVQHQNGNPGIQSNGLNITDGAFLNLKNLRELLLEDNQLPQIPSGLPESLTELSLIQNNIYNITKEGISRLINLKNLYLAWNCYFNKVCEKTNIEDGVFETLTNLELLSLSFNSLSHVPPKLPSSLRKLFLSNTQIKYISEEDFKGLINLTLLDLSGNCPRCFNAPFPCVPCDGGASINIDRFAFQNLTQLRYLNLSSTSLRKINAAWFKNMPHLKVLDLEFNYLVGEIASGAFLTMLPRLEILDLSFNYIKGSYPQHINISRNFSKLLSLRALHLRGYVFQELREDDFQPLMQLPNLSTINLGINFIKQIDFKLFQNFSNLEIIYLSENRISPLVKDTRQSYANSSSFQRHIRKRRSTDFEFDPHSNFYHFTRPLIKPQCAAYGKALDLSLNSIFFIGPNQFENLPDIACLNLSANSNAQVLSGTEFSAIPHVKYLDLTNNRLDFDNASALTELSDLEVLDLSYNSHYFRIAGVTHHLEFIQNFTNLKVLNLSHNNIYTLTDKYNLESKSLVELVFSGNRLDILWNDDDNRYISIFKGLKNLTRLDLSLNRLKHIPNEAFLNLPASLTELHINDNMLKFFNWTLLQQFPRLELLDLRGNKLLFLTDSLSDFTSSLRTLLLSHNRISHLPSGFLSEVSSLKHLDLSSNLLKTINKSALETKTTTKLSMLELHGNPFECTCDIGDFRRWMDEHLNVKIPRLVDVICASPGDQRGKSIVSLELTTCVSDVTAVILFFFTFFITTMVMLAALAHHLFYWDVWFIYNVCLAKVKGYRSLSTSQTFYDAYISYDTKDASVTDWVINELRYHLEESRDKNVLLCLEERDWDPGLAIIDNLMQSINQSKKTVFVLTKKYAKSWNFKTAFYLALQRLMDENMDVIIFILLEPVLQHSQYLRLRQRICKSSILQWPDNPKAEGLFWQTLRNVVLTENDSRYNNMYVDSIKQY
Procedure: (§1) Peripheral blood mononuclear cells (PBMCs) from human blood were isolated using BD Vacutainer Cell Preparation Tubes with sodium citrate. Cells were incubated with compound overnight. TLR8 activity was assayed by measuring the amount of TNFα in supernatants by ELISA. TLR7 activity was assayed by measuring the amount of IFNα in supernatants by ELISA (R&D Systems). […] The results of this assay are shown below in Tables 2 and 3.
(§2) MC50 numbers are represented as factors of ten, for example, + indicates an MC50 value of ×10^4, or a value in the tens of thousands of nanomolar (nM range); ++ indicates an MC50 value of ×10^3, or a value in the thousands; +++ indicates an MC50 value of ×10^2, or a value in the hundreds; and ++++ indicates an MC50 value of ×10^1 or 10°, or a value in the tens or ones.

TLR7 = target: T2, TLR7 (Homo sapiens, UniProt Q9NYK1); experiment: PBMC assay for TLR7 (IFNα in supernatants by ELISA); type: cell-based; parameters: Peripheral blood mononuclear cells (PBMCs) from human blood were isolated; endogenous in cells; host or cells: human PBMCs; conditions: human PBMCs incubated with compound overnight, MC50 = concentration at which 50% of the maximum induction is seen
T2 sequence (Q9NYK1 27-1049): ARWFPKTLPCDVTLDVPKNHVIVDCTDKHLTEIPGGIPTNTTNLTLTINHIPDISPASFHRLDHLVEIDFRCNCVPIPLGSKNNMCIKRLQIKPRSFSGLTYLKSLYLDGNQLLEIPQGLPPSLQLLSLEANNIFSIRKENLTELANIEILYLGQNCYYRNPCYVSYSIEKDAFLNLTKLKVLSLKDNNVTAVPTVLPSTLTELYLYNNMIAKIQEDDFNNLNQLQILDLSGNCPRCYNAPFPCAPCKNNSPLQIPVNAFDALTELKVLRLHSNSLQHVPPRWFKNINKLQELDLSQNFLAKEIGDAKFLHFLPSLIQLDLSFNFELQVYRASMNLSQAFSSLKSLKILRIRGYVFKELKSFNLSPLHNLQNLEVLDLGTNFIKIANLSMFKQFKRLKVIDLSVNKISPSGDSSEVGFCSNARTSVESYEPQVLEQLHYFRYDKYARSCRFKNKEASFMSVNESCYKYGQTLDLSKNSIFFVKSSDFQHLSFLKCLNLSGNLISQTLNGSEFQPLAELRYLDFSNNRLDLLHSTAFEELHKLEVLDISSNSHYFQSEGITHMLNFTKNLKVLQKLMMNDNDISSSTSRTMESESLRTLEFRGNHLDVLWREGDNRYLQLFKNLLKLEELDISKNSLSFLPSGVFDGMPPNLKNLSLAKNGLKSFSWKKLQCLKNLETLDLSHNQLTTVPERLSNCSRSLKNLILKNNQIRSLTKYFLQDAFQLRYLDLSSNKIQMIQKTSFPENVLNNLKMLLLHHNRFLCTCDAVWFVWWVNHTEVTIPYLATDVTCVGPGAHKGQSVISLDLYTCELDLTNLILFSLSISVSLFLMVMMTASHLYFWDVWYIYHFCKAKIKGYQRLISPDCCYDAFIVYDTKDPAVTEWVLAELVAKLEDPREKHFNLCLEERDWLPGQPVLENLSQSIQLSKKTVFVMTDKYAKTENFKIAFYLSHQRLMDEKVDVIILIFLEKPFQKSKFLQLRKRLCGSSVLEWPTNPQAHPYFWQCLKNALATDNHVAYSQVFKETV
Procedure: as §1, §2

Row | SMILES | EC50 (TLR8) | EC50 (TLR7)
1 | CCCN(CCC)C(=O)C1=Cc2ccc(-c3cccc(C#N)c3)cc2N=C(N)C1 [Compound 136, (1E,4E)-2-amino-8-(3-cyanophenyl)-N,N-dipropyl-3H-benzo[b]azepine-4-carboxamide] | 1 to 100 nM | 1000 to 10000 nM
2 | CCCN(CCCO)C(=O)C1=Cc2ccc(-c3ccc(C(=O)N4CCCC4)cc3)cc2N=C(N)C1 [Compound 109, (1E,4E)-2-amino-N-(3-hydroxypropyl)-N-propyl-8-(4-(pyrrolidine-1-carbonyl)phenyl)-3H-benzo[b]azepine-4-carboxamide] | 1 to 100 nM | 1000 to 10000 nM
3 | CCCN(CCC)C(=O)C1=Cc2ccc(-c3cccnc3)cc2N=C(N)C1 [Compound 133, (1E,4E)-2-amino-N,N-dipropyl-8-(pyridin-3-yl)-3H-benzo[b]azepine-4-carboxamide] | 1 to 100 nM | 1000 to 10000 nM
4 | CC(C)CN(CC(C)C)C(=O)C1=Cc2ccc(-c3ccc(C(=O)N4CCCC4)cc3)cc2N=C(N)C1 [Compound 103, (1E,4E)-2-amino-N,N-diisobutyl-8-(4-(pyrrolidine-1-carbonyl)phenyl)-3H-benzo[b]azepine-4-carboxamide] | 1000 to 10000 nM | 1000 to 10000 nM
5 | CCCN(CCOC)C(=O)C1=Cc2ccc(-c3ccc(C(=O)N4CCCC4)cc3)cc2N=C(N)C1 [Compound 119, (1E,4E)-2-amino-N-(2-methoxyethyl)-N-propyl-8-(4-(pyrrolidine-1-carbonyl)phenyl)-3H-benzo[b]azepine-4-carboxamide] | 100 to 1000 nM | 1000 to 10000 nM
6 | CCCN(CC(C)O)C(=O)C1=Cc2ccc(-c3ccc(C(=O)N4CCCC4)cc3)cc2N=C(N)C1 (stereo not shown) [Compound 104, (1E,4E)-2-amino-N-(2-hydroxypropyl)-N-propyl-8-(4-(pyrrolidine-1-carbonyl)phenyl)-3H-benzo[b]azepine-4-carboxamide] | 1 to 100 nM | 1000 to 10000 nM
7 | CCCN(CCCO)C(=O)C1=Cc2ccc(-c3ccc(C(=O)OCC)c(F)c3)cc2N=C(N)C1 [Compound 211, Ethyl 4-((1E,4E)-2-amino-4-((3-hydroxypropyl)(propyl)carbamoyl)-3H-benzo[b]azepin-8-yl)-2-fluorobenzoate] | 100 to 1000 nM | 1000 to 10000 nM
8 | CCOC(=O)C1=Cc2ccc(-c3cccc(C(=O)N(C)C)c3)cc2N=C(N)C1 [Compound 147, (1E,4E)-ethyl 2-amino-8-(3-(dimethylcarbamoyl)phenyl)-3H-benzo[b]azepine-4-carboxylate] | 100 to 1000 nM | 1000 to 10000 nM
9 | CCCN(CCCO)C(=O)C1=Cc2ccc(-c3ccccc3C(=O)OCC)cc2N=C(N)C1 [Compound 204, Ethyl 2-((1E,4E)-2-amino-4-((3-hydroxypropyl)(propyl)carbamoyl)-3H-benzo[b]azepin-8-yl)benzoate] | 100 to 1000 nM | 1000 to 10000 nM
10 | CCCN(CCCO)C(=O)C1=Cc2ccc(-c3ccc(C(=O)N4CC[C@H](O)C4)cc3)cc2N=C(N)C1 [Compound 182, (1E,4E)-2-amino-N-(3-hydroxypropyl)-8-(4-((S)-3-hydroxypyrrolidine-1-carbonyl)phenyl)-N-propyl-3H-benzo[b]azepine-4-carboxamide] | 1 to 100 nM | 1000 to 10000 nM

The remaining lines, values ahead:

Row | EC50 (TLR8) | EC50 (TLR7) | SMILES
11 | 100 to 1000 nM | 1000 to 10000 nM | CCCN(CCC)C(=O)C1=Cc2ccc(-c3ccc(C(=O)N4CCCCC4)cc3)cc2N=C(N)C1 [Compound 126, (1E,4E)-2-amino-8-(4-(piperidine-1-carbonyl)phenyl)-N,N-dipropyl-3H-benzo[b]azepine-4-carboxamide]
12 | 100 to 1000 nM | 100 to 1000 nM | CCCN(CCC)C(=O)C1=Cc2ccc(-c3ccc(O)cc3)cc2N=C(N)C1 [Compound 195, (1E,4E)-2-amino-8-(4-hydroxyphenyl)-N,N-dipropyl-3H-benzo[b]azepine-4-carboxamide]
13 | 100 to 1000 nM | 10000 to 100000 nM | CCCN(CCCO)C(=O)C1=Cc2ccc(-c3ccc(/C=C/C(=O)OCC)cc3)cc2N=C(N)C1 [Compound 220, (E)-Ethyl 3-(4-((1E,4E)-2-amino-4-((3-hydroxypropyl)(propyl)carbamoyl)-3H-benzo[b]azepin-8-yl)phenyl)acrylate]
14 | 1 to 100 nM | 1000 to 10000 nM | CCCN(CCC)C(=O)C1=Cc2ccc(-c3ccc(C(=O)N4CC[C@H](O)C4)cc3)cc2N=C(N)C1 [Compound 128, (1E,4E)-2-amino-8-(4-((S)-3-hydroxypyrrolidine-1-carbonyl)phenyl)-N,N-dipropyl-3H-benzo[b]azepine-4-carboxamide]
15 | 100 to 1000 nM | 1000 to 10000 nM | CCCN(CCC)C(=O)C1=Cc2ccc(-c3ccc(C(=O)N(CC)CC)cc3)cc2N=C(N)C1 [Compound 125, (1E,4E)-2-amino-8-(4-(diethylcarbamoyl)phenyl)-N,N-dipropyl-3H-benzo[b]azepine-4-carboxamide]
16 | 100 to 1000 nM | 1000 to 10000 nM | CCCN(CCC)C(=O)C1=Cc2ccc(-c3cccc(O)c3)cc2N=C(N)C1 [Compound 194, (1E,4E)-2-amino-8-(3-hydroxyphenyl)-N,N-dipropyl-3H-benzo[b]azepine-4-carboxamide]
17 | 100 to 1000 nM | 1000 to 10000 nM | CCCN(CCC)C(=O)C1=Cc2ccc(-c3ccc(C(=O)OC)nc3)cc2N=C(N)C1 [Compound 212, Methyl 5-((1E,4E)-2-amino-4-(dipropylcarbamoyl)-3H-benzo[b]azepin-8-yl)picolinate]
18 | 100 to 1000 nM | 1000 to 10000 nM | CCCN(CCC)C(=O)C1=Cc2ccc(-c3ccc(C(=O)OC)cc3)cc2N=C(N)C1 [Compound 206, Methyl 4-((1E,4E)-2-amino-4-(dipropylcarbamoyl)-3H-benzo[b]azepin-8-yl)benzoate]
19 | 100 to 1000 nM | 1000 to 10000 nM | CCCN(CCC)C(=O)C1=Cc2ccc(-c3ccc(C(=O)OCC)cc3)cc2N=C(N)C1 [Compound 139, ethyl 4-((1E,4E)-2-amino-4-(dipropylcarbamoyl)-3H-benzo[b]azepin-8-yl)benzoate]
20 | 1 to 100 nM | 1000 to 10000 nM | CCCN(CCC)C(=O)C1=Cc2ccc(-c3cccc(C(=O)N(C)C)c3)cc2N=C(N)C1 [Compound 138, (1E,4E)-2-amino-8-(3-(dimethylcarbamoyl)phenyl)-N,N-dipropyl-3H-benzo[b]azepine-4-carboxamide]
